We go through 14 compounds from ChEMBL document CHEMBL5584207, “Discovery of novel indole derivatives as potent and selective inhibitors of proMMP-9 activation” (Bioorg Med Chem Lett, 2024).

Series [1] deals with Matrix metalloproteinase-9 (Homo sapiens, UniProt P14780). As to the kind of experiment: Inhibition of proMMP-9 (unknown origin).
Series [2] in a line: Solubility of compound. The class given is physicochemical.
In series [3] the target is Stromelysin-1 (Homo sapiens) (UniProt P08254). As to the kind of experiment: Inhibition of MMP-3 catalytic activity (unknown origin).
Series [4] deals with 72 kDa type IV collagenase (Homo sapiens, UniProt P08253). The series can be described thus: Inhibition of proMMP-2 (unknown origin).
The next series addresses Collagenase 3 (Homo sapiens, UniProt P45452). As to the kind of experiment: Inhibition of proMMP-13 (unknown origin).

≈ marks a conversion by molar mass, not a printed value. Calls of active or inactive are those of the source. The calls are words filed in the database; no cut-off is given here. Bounds are passed on as bounds.

Sequence of Matrix metalloproteinase-9 (P14780 whole entry): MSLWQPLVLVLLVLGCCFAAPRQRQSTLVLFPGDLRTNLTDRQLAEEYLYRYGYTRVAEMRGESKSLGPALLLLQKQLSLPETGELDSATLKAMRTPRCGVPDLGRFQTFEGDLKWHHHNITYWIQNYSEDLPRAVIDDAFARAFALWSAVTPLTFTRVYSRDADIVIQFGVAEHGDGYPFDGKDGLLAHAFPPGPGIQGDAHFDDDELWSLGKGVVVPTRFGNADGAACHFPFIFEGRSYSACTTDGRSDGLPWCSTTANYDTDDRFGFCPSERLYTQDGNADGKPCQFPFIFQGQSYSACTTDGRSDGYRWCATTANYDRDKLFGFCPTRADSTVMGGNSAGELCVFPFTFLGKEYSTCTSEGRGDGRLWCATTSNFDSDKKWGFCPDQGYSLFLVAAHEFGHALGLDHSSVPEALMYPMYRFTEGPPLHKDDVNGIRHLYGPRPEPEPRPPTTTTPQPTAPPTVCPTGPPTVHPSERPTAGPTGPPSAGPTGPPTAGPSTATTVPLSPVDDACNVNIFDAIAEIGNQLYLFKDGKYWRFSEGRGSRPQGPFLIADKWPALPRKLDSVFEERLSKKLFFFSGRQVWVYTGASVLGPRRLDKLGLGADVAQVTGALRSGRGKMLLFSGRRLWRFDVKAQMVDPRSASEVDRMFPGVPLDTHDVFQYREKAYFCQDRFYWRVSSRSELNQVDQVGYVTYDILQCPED
Sequence of Stromelysin-1 (Homo sapiens) (P08254 100-477 limits assumed): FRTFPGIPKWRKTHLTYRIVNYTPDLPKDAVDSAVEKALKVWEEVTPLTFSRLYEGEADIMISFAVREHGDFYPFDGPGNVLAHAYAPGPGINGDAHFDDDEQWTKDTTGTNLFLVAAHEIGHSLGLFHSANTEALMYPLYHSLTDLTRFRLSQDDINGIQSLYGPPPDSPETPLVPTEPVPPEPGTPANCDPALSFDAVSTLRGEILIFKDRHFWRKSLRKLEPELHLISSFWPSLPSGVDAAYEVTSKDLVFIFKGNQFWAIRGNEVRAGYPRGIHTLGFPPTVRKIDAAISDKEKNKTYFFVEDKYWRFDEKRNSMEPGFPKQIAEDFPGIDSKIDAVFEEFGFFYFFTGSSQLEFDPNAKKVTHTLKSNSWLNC
Sequence of 72 kDa type IV collagenase (P08253 whole entry): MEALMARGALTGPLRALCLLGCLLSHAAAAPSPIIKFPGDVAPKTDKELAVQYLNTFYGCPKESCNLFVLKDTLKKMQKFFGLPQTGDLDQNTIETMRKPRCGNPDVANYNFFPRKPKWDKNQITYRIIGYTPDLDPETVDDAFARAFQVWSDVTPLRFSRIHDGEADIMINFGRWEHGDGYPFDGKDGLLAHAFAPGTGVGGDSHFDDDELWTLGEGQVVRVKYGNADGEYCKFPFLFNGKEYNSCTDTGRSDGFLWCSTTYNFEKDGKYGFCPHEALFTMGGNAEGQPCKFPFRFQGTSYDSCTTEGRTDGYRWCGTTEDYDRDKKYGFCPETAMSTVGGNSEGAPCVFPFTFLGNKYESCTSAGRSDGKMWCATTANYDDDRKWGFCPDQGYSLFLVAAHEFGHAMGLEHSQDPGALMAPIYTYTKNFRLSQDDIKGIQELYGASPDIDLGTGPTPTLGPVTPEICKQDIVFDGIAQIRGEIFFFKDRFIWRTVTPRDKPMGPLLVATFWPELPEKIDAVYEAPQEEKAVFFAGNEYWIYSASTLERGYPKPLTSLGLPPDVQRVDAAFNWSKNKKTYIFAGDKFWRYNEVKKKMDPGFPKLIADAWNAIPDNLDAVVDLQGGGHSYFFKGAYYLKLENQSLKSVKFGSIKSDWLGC

As usually defined, the IC50 is the concentration needed to halve the response being measured. The low end stands for greater potency, the high end for weaker potency. In general, solubility refers to the dissolved amount per volume that the medium holds. `O=C(c1cc2ccc(C3CCC3)cc2[nH]1)N1CCCc2cnccc2C1` displayed an IC50 in series [1] of 0.12 µM. The compound further registered a solubility in series [2] of 0.4 µg/mL (≈ 1.16 µM).
Take `O=C(c1cc2ccc(C3CC3)cc2[nH]1)N1CCCc2cnccc2C1`: half-maximal inhibition in series [1] (IC50) was put at 0.081 µM. The same compound returned a solubility in series [2] of 8.6 µg/mL (≈ 25.9 µM).
As for `CNc1cc(F)cc2cc(C(=O)N3CCc4ccc(C(=O)NCCN5CCCC5)cc4C3)[nH]c12`, in series [1], the IC50 was 2.6 µM. The inhibition entry in series [3] is “inactive”.
In series [1], `CC(C)(O)c1ccc2cc(C(=O)N3CCCc4cnccc4C3)[nH]c2c1` came in with an IC50 of 0.58 µM. In series [2], this compound had a solubility of more than 35 µg/mL.
In the case of `CC(C)(O)c1ccc2cc(C(=O)N3CCCc4cnc(N)c(F)c4C3)[nH]c2c1`, the 50% inhibitory concentration (IC50) was 0.044 µM in series [1], more than 30 µM in series [4] and more than 30 µM on Collagenase 3.
As for `CC(C)(C)c1ccc2cc(C(=O)N3CCCc4cnccc4C3)[nH]c2c1`, in series [1], inhibition was half-maximal at 0.11 µM (IC50). Also, in series [2], the solubility was found to be 1.3 µg/mL (≈ 3.74 µM).
Turning to `CCc1cccc2c(C(=O)N3CCc4ocnc4C3)n[nH]c12`, the 50% inhibitory concentration (IC50) in series [1] came to 8.5 µM. Further, in series [3], the inhibition result is “inactive”.
As for `C[C@]1(O)C[C@@H](c2ccc3cc(C(=O)N4CCCc5cnccc5C4)[nH]c3c2)C1`, in series [1], the IC50 was determined as 0.16 µM. Moreover, the solubility in series [2] came out at 3 µg/mL (≈ 7.99 µM).
For the compound `O=C(c1cc2ccc(CCO)cc2[nH]1)N1CCCc2cnccc2C1`, in series [1], the concentration for half-maximal inhibition (IC50) was 1.1 µM. The same compound had a solubility in series [2] of more than 33 µg/mL.
Compound `O=C(NCCN1CCCC1)c1ccc2c(c1)CN(C(=O)c1cc3c(F)cc(C4CC4)cc3[nH]1)CC2` returned an IC50 in series [1] of 1 µM.
Compound `CCc1ccc2cc(C(=O)N3CCCc4cnccc4C3)[nH]c2c1` registered a half-maximal inhibitory concentration (IC50) in series [1] of 0.12 µM. Besides, the solubility in series [2] amounted to 0.8 µg/mL (≈ 2.5 µM).
For `O=C(c1cc2ccc(C3CC3)cc2[nH]1)N1CCc2cnccc2C1`, the IC50 in series [1] was more than 50 µM.
Same read-out and setting: the result for `O=C(c1cc2ccc(C3CC3)cc2[nH]1)N1CCc2ocnc2C1` reads 1.1 µM; that for `O=C(c1cc2ccc(C3CC3)cc2[nH]1)N1CCc2ccccc2C1`, more than 50 µM.
